Molecules are shown by their SMILES. Read-outs that look alike come from different tables or passages of the source.

For series [1], the system named is metastatic melanoma. The settings on record: cited from earlier work.
The conditions of series [2]: human, in vivo.
The subject of series [3] is P-AKT Ser473. To be noted: single-agent, matching biopsies, head and neck cancer patients; cited from earlier work.
The subject of series [4] is metastatic melanoma. To be noted: temsirolimus; cited from earlier work.
Another series concerns P-S6. The settings on record: biopsies from treated patients; cited from earlier work.
The test system of series [5] is P-AKT Ser473. The settings on record: biopsies from treated patients; cited from earlier work.

For `CNC(=O)c1cc(Oc2ccc(NC(=O)Nc3ccc(Cl)c(C(F)(F)F)c3)cc2)ccn1` [Sorafenib], in the series on metastatic melanoma [1] (melanoma patients, sorafenib), the Clinical response rate is recorded as 3%. The “Patients who achieved a clinical response” value in the series on metastatic melanoma [1] (metastatic melanoma patients, sorafenib monotherapy) is recorded as “one of 37”. Also, the “Mean Cmax and Cavg at steady-state on Day 15 compared to Day 1” value in series [2] is recorded as 2-4 fold.

With `CO[C@H]1C[C@@H]2CC[C@@H](C)[C@@](O)(O2)C(=O)C(=O)N2CCCC[C@H]2C(=O)O[C@H]([C@H](C)C[C@@H]2CC[C@@H](OC(=O)C(C)(CO)CO)[C@H](OC)C2)CC(=O)[C@H](C)/C=C(\C)[C@@H](O)[C@@H](OC)C(=O)[C@H](C)C[C@H](C)/C=C/C=C/C=C/1C` [Temsirolimus], in the series on P-AKT Ser473 [3], the “Change in P-AKT Ser473” value was “lack of increase”. Besides, the “Patients who achieved a clinical response” value in the series with metastatic melanoma [4] was 1 of 33.

Take `CO[C@H]1C[C@@H]2CC[C@@H](C)[C@@](O)(O2)C(=O)C(=O)N2CCCC[C@H]2C(=O)O[C@H]([C@H](C)C[C@@H]2CC[C@@H](OCCO)[C@H](OC)C2)CC(=O)[C@H](C)/C=C(\C)[C@@H](O)[C@@H](OC)C(=O)[C@H](C)C[C@H](C)/C=C/C=C/C=C/1C` [everolimus]: in the series with P-S6, the “Change in P-S6” value is on record as “decrease”. Further, the “Change in P-AKT Ser473” value in the series on P-AKT Ser473 [5] was “increase”.
